Reference: ChEMBL document CHEMBL1201862, “PubChem BioAssay data set” (2004)
Counter-ions that a name gives are not always drawn.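 Compound exposure: 48 hours, 5 concentrations, 96-well plates. Here, GI50 denotes the concentration required for 50% inhibition of growth.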 The source made the active and inactive calls. No stated cut-off is given here; in the data, active = GI50 up to about 1.1 µM and inactive = higher.

How the values were obtained:
Test in all cases: NCI anticancer screen, dose series, 48 h
ACHN = tested on: ACHN
BT-549 = tested on: BT-549
CCRF-CEM = tested on: CCRF-CEM
COLO 205 = tested on: COLO 205
DU-145 = tested on: DU-145
HCT-116 = tested on: HCT-116
HL-60 = tested on: HL-60
Hs-578T = tested on: Hs-578T
IGROV-1 = tested on: IGROV-1
M14 = tested on: M14
MDA-N = tested on: MDA-N
NCI-H226 = tested on: NCI-H226
NCI-H23 = tested on: NCI-H23
NCI-H522 = tested on: NCI-H522
NCI/ADR-RES = tested on: NCI/ADR-RES
OVCAR-5 = tested on: OVCAR-5
SN12C = tested on: SN12C
SW-620 = tested on: SW-620
TK-10 = tested on: TK-10
UACC-62 = tested on: UACC-62

Row | SMILES | GI50 (ACHN) | GI50 (BT-549) | GI50 (CCRF-CEM) | GI50 (COLO 205) | GI50 (DU-145) | GI50 (HCT-116) | GI50 (HL-60) | GI50 (Hs-578T) | GI50 (IGROV-1) | GI50 (M14) | GI50 (MDA-N) | GI50 (NCI-H226) | GI50 (NCI-H23) | GI50 (NCI-H522) | GI50 (NCI/ADR-RES) | GI50 (OVCAR-5) | GI50 (SN12C) | GI50 (SW-620) | GI50 (TK-10) | GI50 (UACC-62)
1 | O=C1c2cc([N+](=O)[O-])ccc2-c2ccc3c4ccc5c6c(ccc(c7ccc1c2c73)c64)C(=O)c1cc([N+](=O)[O-])ccc1-5 | > 100 µM (inactive) | > 100 µM (inactive) | > 100 µM (inactive) | > 100 µM (inactive) | > 100 µM (inactive) | > 100 µM (inactive) | > 100 µM (inactive) | > 100 µM (inactive) | > 100 µM (inactive) | > 100 µM (inactive) | > 100 µM (inactive) | > 100 µM (inactive) | > 100 µM (inactive) | > 100 µM (inactive) | > 100 µM (inactive) | > 100 µM (inactive) | > 100 µM (inactive) | > 100 µM (inactive) | > 100 µM (inactive) | > 100 µM (inactive)
2 | O=C1C(CN2CCOCC2)CCCC1CN1CCOCC1 (stereo not drawn) | 1.88 µM (inactive) | 1.96 µM (inactive) | 0.76 µM (active) | 3.1 µM (inactive) | 17.3 µM (inactive) | 1.29 µM (inactive) | 0.787 µM (active) | 23 µM (inactive) | 8.79 µM (inactive) | 3.44 µM (inactive) | 4.37 µM (inactive) | 20.6 µM (inactive) | 6 µM (inactive) | 0.0597 µM (active) | 2.18 µM (inactive) | 18.6 µM (inactive) | 4.01 µM (inactive) | 0.436 µM (active) | 3.94 µM (inactive) | 7.85 µM (inactive)
3 | O=S(=O)(/C=C/C=C/[S+]([O-])c1ccccc1)c1ccccc1 (stereo not drawn) | 2.34 µM (inactive) | > 10 µM (inactive) | 0.333 µM (active) | 1.76 µM (inactive) | > 4.42 µM (inactive) | 1.38 µM (inactive) | 0.327 µM (active) | 3.51 µM (inactive) | > 5.41 µM (inactive) | 0.685 µM (active) | 2.95 µM (inactive) | > 10 µM (inactive) | 1.96 µM (inactive) | 1.59 µM (inactive) | 2.12 µM (inactive) | > 8.22 µM (inactive) | 2 µM (inactive) | 1.3 µM (inactive) | 2.09 µM (inactive) | 1.44 µM (inactive)
4 | Cn1c(=O)c2c3ccccc3n(C)c2n(C)c1=O | 97.9 µM (inactive) | > 100 µM (inactive) | > 100 µM (inactive) | > 100 µM (inactive) | > 100 µM (inactive) | > 100 µM (inactive) | > 100 µM (inactive) | > 100 µM (inactive) | > 100 µM (inactive) | > 100 µM (inactive) | > 100 µM (inactive) | > 100 µM (inactive) | > 100 µM (inactive) | > 100 µM (inactive) | > 100 µM (inactive) | > 100 µM (inactive) | > 100 µM (inactive) | > 100 µM (inactive) | > 100 µM (inactive) | > 100 µM (inactive)
5 | COc1ccc(/C=C(/c2ccccc2)c2c(C)cc(C)c(/C(=C\c3ccc(OC)cc3)c3ccccc3)c2/N=N/c2cc(C)cc(C)c2)cc1 | > 56.5 µM (inactive) | 45.3 µM (inactive) | 8.49 µM (inactive) | 8.04 µM (inactive) | 25.6 µM (inactive) | 10 µM (inactive) | 10.3 µM (inactive) | 22.5 µM (inactive) | 14.4 µM (inactive) | 44.6 µM (inactive) | 24 µM (inactive) | 34.2 µM (inactive) | 14.4 µM (inactive) | 15 µM (inactive) | > 100 µM (inactive) | > 84.5 µM (inactive) | 8.47 µM (inactive) | 13.5 µM (inactive) | 21.9 µM (inactive) | 45.6 µM (inactive)
6 | Cn1c2ccccc2c2c(=S)c3ccccc3ccc21 | > 100 µM (inactive) | > 100 µM (inactive) | 19 µM (inactive) | 67.3 µM (inactive) | 88.9 µM (inactive) | 59 µM (inactive) | > 100 µM (inactive) | > 100 µM (inactive) | 81.8 µM (inactive) | > 100 µM (inactive) | > 100 µM (inactive) | 50.5 µM (inactive) | > 100 µM (inactive) | 36.8 µM (inactive) | > 100 µM (inactive) | > 100 µM (inactive) | > 100 µM (inactive) | > 100 µM (inactive) | > 100 µM (inactive) | > 100 µM (inactive)
7 | COc1cc(/C=C/C2=NN(c3cccc(S(=O)(=O)O)c3)C3(C2)SCC(=O)N3c2nc3ccccc3s2)cc(OC)c1OC (stereo not drawn) | 64.3 µM (inactive) | 42 µM (inactive) | 28.8 µM (inactive) | > 100 µM (inactive) | 29.4 µM (inactive) | 50.5 µM (inactive) | 23.8 µM (inactive) | 56.6 µM (inactive) | 43.2 µM (inactive) | 74.8 µM (inactive) | 39.4 µM (inactive) | 44.8 µM (inactive) | 69.3 µM (inactive) | 18 µM (inactive) | 42.7 µM (inactive) | > 100 µM (inactive) | 33.3 µM (inactive) | 61.7 µM (inactive) | 29.9 µM (inactive) | 35.1 µM (inactive)
8 | COc1ccc(/C=C2\CCC(CNc3cc(C)on3)C2=O)cc1 (stereo not drawn) | > 100 µM (inactive) | > 78.3 µM (inactive) | > 100 µM (inactive) | > 100 µM (inactive) | > 83.6 µM (inactive) | > 100 µM (inactive) | > 21.5 µM (inactive) | 57.9 µM (inactive) | 98.2 µM (inactive) | > 100 µM (inactive) | > 100 µM (inactive) | > 100 µM (inactive) | > 78.2 µM (inactive) | 79.8 µM (inactive) | > 54 µM (inactive) | > 100 µM (inactive) | > 100 µM (inactive) | > 100 µM (inactive) | > 84.9 µM (inactive) | > 100 µM (inactive)
9 | O=c1c(-c2ccccc2Cl)coc2cc(F)ccc12 | > 100 µM (inactive) | 14.9 µM (inactive) | 24.3 µM (inactive) | 44.7 µM (inactive) | 27 µM (inactive) | 31.8 µM (inactive) | 4.3 µM (inactive) | 28.4 µM (inactive) | 6.07 µM (inactive) | 14.3 µM (inactive) | 3.79 µM (inactive) | 23.4 µM (inactive) | 37.3 µM (inactive) | 10.6 µM (inactive) | 19.5 µM (inactive) | 27.1 µM (inactive) | 53.2 µM (inactive) | 30.6 µM (inactive) | 47.9 µM (inactive) | 18.2 µM (inactive)
10 | CCOC(=O)c1cc(-n2nnc3ccccc32)cn1C | > 10 µM (inactive) | > 10 µM (inactive) | > 10 µM (inactive) | > 10 µM (inactive) | > 10 µM (inactive) | > 10 µM (inactive) | > 10 µM (inactive) | > 10 µM (inactive) | > 10 µM (inactive) | > 10 µM (inactive) | > 10 µM (inactive) | > 10 µM (inactive) | > 10 µM (inactive) | > 10 µM (inactive) | > 10 µM (inactive) | > 10 µM (inactive) | > 10 µM (inactive) |  | > 10 µM (inactive) | > 10 µM (inactive)
11 | Nc1ccccc1.O=C(O)C(C(F)(F)F)C(F)(F)F | > 100 µM (inactive) | > 100 µM (inactive) | > 100 µM (inactive) | > 100 µM (inactive) | 99.5 µM (inactive) | > 100 µM (inactive) | > 100 µM (inactive) | > 100 µM (inactive) | > 100 µM (inactive) | > 100 µM (inactive) | > 100 µM (inactive) | > 100 µM (inactive) | > 100 µM (inactive) | > 100 µM (inactive) | > 100 µM (inactive) | > 100 µM (inactive) | > 100 µM (inactive) | > 100 µM (inactive) | > 100 µM (inactive) | 68.5 µM (inactive)
12 | O=c1[nH]nc(Cc2ccccc2)n1/N=C/c1ccccc1O | > 100 µM (inactive) | > 100 µM (inactive) | > 100 µM (inactive) | > 100 µM (inactive) | > 100 µM (inactive) | > 100 µM (inactive) | > 100 µM (inactive) | 51.9 µM (inactive) | 83.8 µM (inactive) | > 100 µM (inactive) | > 100 µM (inactive) | > 100 µM (inactive) | > 100 µM (inactive) | > 100 µM (inactive) | > 100 µM (inactive) | > 100 µM (inactive) | > 100 µM (inactive) | > 100 µM (inactive) | > 100 µM (inactive) | > 100 µM (inactive)
13 | CC(=O)OC1CC[C@@]2(C)C(CC[C@]3(C)C2CC=C2[C@@H]4C(C)[C@H](C)CCC4(C)CCC23C)[C@@]1(C)C(=O)O (stereo partly drawn) | 18.2 µM (inactive) | 25 µM (inactive) | 24.9 µM (inactive) | 20.4 µM (inactive) | 17.9 µM (inactive) | 16.4 µM (inactive) | 27.4 µM (inactive) | 25.7 µM (inactive) | 20.6 µM (inactive) | 22.3 µM (inactive) | 20.9 µM (inactive) | 22.1 µM (inactive) | 22.5 µM (inactive) | 19.2 µM (inactive) | 17 µM (inactive) | 18 µM (inactive) | 21.5 µM (inactive) | 21.9 µM (inactive) | 18.6 µM (inactive) | 17 µM (inactive)
14 | N[C@@H](Cc1ccc(N(CCCl)CCCl)cc1)C(=O)O [MELPHALAN HYDROCHLORIDE] | 9.57 µM (inactive) | 38 µM (inactive) | 2.85 µM (inactive) | 43.3 µM (inactive) | 47.2 µM (inactive) | 42.1 µM (inactive) | 2.51 µM (inactive) | 51.8 µM (inactive) |  | 24.5 µM (inactive) | 46.3 µM (inactive) | 49.9 µM (inactive) | 23 µM (inactive) | 25.2 µM (inactive) | 40.7 µM (inactive) | 47.4 µM (inactive) | 14.5 µM (inactive) | 33.6 µM (inactive) | 67.1 µM (inactive) | 11.2 µM (inactive)
